Results as given in patent US6662039B2, “Optical probing of neuronal connections with fluorescent indicators” (The Trustees of Columbia University in the City of New York, priority 1999, dated 2003).

Test system: neurons in visual cortex brain slices
Assay: Optical probing of cortical brain slices made more excitable by channel/receptor blockers
Type: cell-based, mouse
Details: for effect on number of possible postsynaptic targets (follower cells): bath application to fura-2 AM loaded mouse cortical slice, trigger cell stimulated; for epileptiform events in imaged neurons: most or all imaged neurons show action-potential induced increases in [Ca2+]i
Excerpt: This method consist of (i) loading (staining) populations of neurons in brain slices with fluorescent indicators such as fura-2 AM and (ii) imaging dozens of loaded cells during whole-cell stimulation of a particular neuron (the “trigger” cell). On-line analysis is used to determine if any other neurons (the “follower” cells) show a calcium transient time-locked to the firing of the “trigger” cell. After detection, a chosen “follower” cell is patched and a similar experiment is repeated. Histological processing is carried out on the fixed specimens. A detailed explanation of the experiment and some representative results follows.
Brain slices are made from the primary visual cortex of postnatal day (PND) 12-23 C57BL6 mice. Mice are anesthetized with Ketamine/Xylazine (120 mg/kg, 10 mg/kg respectively). Animals are decapitated and the brain is quickly removed and placed into cold ACSF (126 mM NaCl, 3 mM KCl, 26 mM NaHCO3, 1 mM NaH2PO4, 2 mM CaCl2, 2 mM MgSO4, 10 mM Dextrose, bubbled with 95% O2/5% CO2). Coronal slices, 300-400 μm thick, are cut using a vibratome (TPI) and are incubated at 35° C. for 30 minutes in a submerged slice chamber. Slices are then incubated at room temperature (˜25° C.) for up to 12 hours.
After loading, slices are placed in a submerged recording chamber mounted on the stage of an upright microscope (BX50WI, Olympus). All experiments are done at room temperature. Fluorescent images of fura-2 loaded neurons are taken with a cCCD camera (Micromax, Princeton Instruments) equipped with a frame transfer chip (EEV 512, Kodak) or an hexagonal photodiode array with 464 pixels (PDA, Universal Imaging). To maximize the number of imaged neurons a 20×/0.5 NA water immersion objective (Olympus) is used. Image acquisition is typically 25 msec/frame and each pixel is digitized at 12 bits. Camera images are acquired, stored and analyzed using a Macintosh 7100 (Apple Computers, Cupertino, Calif.) computer and IPLab software (Signal Analytics). Signals from the photodiodes are amplified, sampled at 1.6 KHz and analyzed using Neuroplex (Universal Imaging). For imaging of the calcium transients a 380 nm excitation, a 395 nm dichroic and a 510 emission filter (Chroma) are used. Also imaged is each neuron at the isosbestic excitation of 365 nm during every experiment to assess the approximate [Ca^2+]i and therefore monitor the health of the cells. The 365 nm images are used to estimate the intracellular concentration of fura-2, using the fluorescence of the patched cell (which has a known concentration of fura-2) as a calibration. For most neurons, after correcting for background fluorescence and focus, an intracellular concentration of indicator of approximately 40-50 μM was estimated. These values, obtained from experiments with good loading at PND 12-23, obviously depend crucially on many factors that affect loading, such as age, incubation time and health of the slices. Changes in fluorescence in multiple cells were analyzed with a program written in IPLab. The fluorescence change over time is defined as ΔF/F=(F0−F1)/(F0) and, for the analysis of the AM loaded cells fluorescence change was defined as ΔF/F=((F0−-B0)−(F1−B1))/(F0−B0), expressed in %, where F1 and B are fluorescence in the somata and background fluorescence, respectively, at any given timepoint, and F0 and B0 are fluorescence and background at the beginning of the experiment.
To maximize the effect of the stimulation of the trigger cell, different methods of enhancing synaptic release and also of making postsynaptic cells more excitable have been experimented with. Currently used is 3 mM [Ca^2+]e in our ACSF (artificial cerebrospinal fluid) because high [Ca^2+]e decreases synaptic failures and, by increasing the [Ca^2+] gradient between the inside and outside of the cell, it also produces bigger action-potential induced calcium signals. […]

| SMILES | effect on number of possible postsynaptic targets (follower cells) | epileptiform events in imaged neurons |
| --- | --- | --- |
| Nc1ccncc1 [4-AP] | increases the number of possible postsynaptic targets | produces spontaneous or evoked epileptiform events |
| CN1CCc2cc3c(cc2[C@H]1[C@@H]1OC(=O)c2c1ccc1c2OCO1)OCO3 [Bicuculine] | increases the number of possible postsynaptic targets | produces spontaneous or evoked epileptiform events |
| CC[N+](CC)(CC)CC [TEA] | increases the number of possible postsynaptic targets | produces spontaneous or evoked epileptiform events |
